Measured values from PubChem BioAssay AID330 (DTP/NCI, 2004).
“And” between values parts separate entries of the source, which are not always exact repeats. Identical values can stand only once. Inconclusive results and toxic doses are left out. The calls were made as follows: active = survival T/C of 150% or more; inactive = T/C below 125% in these data.

System: P388 leukemia ip, CD2F1 mice, survival T/C
Assay: NCI In Vivo Anticancer Drug Screen. Data for tumor model P388 Leukemia (intraperitoneal) in CD2F1 (CDF1) mice
Settings: endpoint: median survival time, higher = longer survival
Outline: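 Mice carrying the transplanted tumor received test compound or vehicle. Survival was recorded in each group, and the value is the treated-group measurement divided by that of the vehicle-treated control group.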

[1] = dose: 200.0 mg/kg/injection, schedule: Q04DX003 (ip), vehicle: distilled water + Tween-80
[2] = dose: 50.0 mg/kg/injection, schedule: Q01DX009 (ip), vehicle: saline
[3] = dose: 100.0 mg/kg/injection, schedule: Q01DX009 (ip), vehicle: saline
[4] = dose: 200.0 mg/kg/injection, schedule: Q01DX009 (ip), vehicle: saline
[5] = dose: 50.0 mg/kg/injection, schedule: Q01DX005 (ip), vehicle: saline with Tween-80
[6] = dose: 100.0 mg/kg/injection, schedule: Q01DX005 (ip), vehicle: saline with Tween-80
[7] = dose: 200.0 mg/kg/injection, schedule: Q01DX005 (ip), vehicle: saline with Tween-80
[8] = dose: 60.0 mg/kg/injection, schedule: Q01DX005 (ip), vehicle: saline with Tween-80
[9] = dose: 120.0 mg/kg/injection, schedule: Q01DX005 (ip), vehicle: saline with Tween-80
[10] = dose: 240.0 mg/kg/injection, schedule: Q01DX005 (ip), vehicle: saline with Tween-80

Measured: T/C

COc1ccc2cc3n(c(=Nc4ccccc4)c2c1OC)CCc1cc2c(cc1-3)OCO2
inactive: dose: 0.63 mg/kg/injection, schedule: Q01DX009 (ip), vehicle: water 97 % of control | dose: 1.25 mg/kg/injection, schedule: Q01DX009 (ip), vehicle: water 93 % of control | dose: 2.5 mg/kg/injection, schedule: Q01DX009 (ip), vehicle: water 101 % of control | dose: 5.0 mg/kg/injection, schedule: Q01DX009 (ip), vehicle: water 124 % of control | dose: 10.0 mg/kg/injection, schedule: Q01DX009 (ip), vehicle: water 99 % of control | dose: 20.0 mg/kg/injection, schedule: Q01DX009 (ip), vehicle: water 101 % of control

CSC(=S)N/N=C\C(C)=N/N=C(N)N
inactive: dose: 3.12 mg/kg/injection, schedule: Q01DX009 (ip), vehicle: saline 101 % of control | dose: 6.25 mg/kg/injection, schedule: Q01DX009 (ip), vehicle: saline 101 % of control | dose: 12.5 mg/kg/injection, schedule: Q01DX009 (ip), vehicle: saline 107 % of control

COc1ccc(C2=[N+]([O-])C(C)(C)C(c3ccccc3)C2)cc1 (stereo unspecified)
inactive: dose: 50.0 mg/kg/injection, schedule: Q01DX009 (ip), vehicle: Klucel (hydroxypropylcellulose) (HPC) 97 % of control | dose: 100.0 mg/kg/injection, schedule: Q01DX009 (ip), vehicle: Klucel (hydroxypropylcellulose) (HPC) 101 % of control | dose: 200.0 mg/kg/injection, schedule: Q01DX009 (ip), vehicle: Klucel (hydroxypropylcellulose) (HPC) 100 % of control

CC(C)NC(C)C(C)c1ccccc1 (stereo unspecified)
inactive: dose: 25.0 mg/kg/injection, schedule: Q04DX003 (ip), vehicle: saline 99 % of control | dose: 50.0 mg/kg/injection, schedule: Q01DX001 (ip), vehicle: saline 94 % of control | dose: 50.0 mg/kg/injection, schedule: Q04DX003 (ip), vehicle: saline 100 % of control | dose: 100.0 mg/kg/injection, schedule: Q01DX001 (ip), vehicle: saline 96 % of control | dose: 100.0 mg/kg/injection, schedule: Q04DX003 (ip), vehicle: saline 93 % of control

COC1NC(=S)N(Cc2ccccc2)C1(C)C (stereo unspecified)
inactive: dose: 50.0 mg/kg/injection, schedule: Q01DX009 (ip), vehicle: suspension in saline 102 % of control | dose: 100.0 mg/kg/injection, schedule: Q01DX009 (ip), vehicle: suspension in saline 97 % of control | dose: 200.0 mg/kg/injection, schedule: Q01DX009 (ip), vehicle: suspension in saline 93 % of control

Clc1ccc(CN2COc3c(cc(Cl)c4cccnc34)C2)cc1Cl
inactive: dose: 100.0 mg/kg/injection, schedule: Q04DX003 (ip), vehicle: Klucel (hydroxypropylcellulose) (HPC) 97 % of control | dose: 200.0 mg/kg/injection, schedule: Q04DX003 (ip), vehicle: Klucel (hydroxypropylcellulose) (HPC) 97 % of control | dose: 400.0 mg/kg/injection, schedule: Q04DX003 (ip), vehicle: Klucel (hydroxypropylcellulose) (HPC) 89 % of control

COC(=O)C1c2ccc(OC)c(OC)c2C(=O)N2CCc3cc4c(cc3C12)OCO4 (stereo unspecified)
inactive: dose: 50.0 mg/kg/injection, schedule: Q04DX003 (ip), vehicle: distilled water + Tween-80 95 % of control | dose: 100.0 mg/kg/injection, schedule: Q04DX003 (ip), vehicle: distilled water + Tween-80 101 % of control | [1] 95 % of control | dose: 400.0 mg/kg/injection, schedule: Q04DX003 (ip), vehicle: distilled water + Tween-80 104 % of control

CC(=O)OC1C(=O)OC(=O)C(OC(C)=O)C1OC(C)=O (stereo unspecified)
inactive: [2] 100 % of control | [3] 93 % of control | [4] 100 % of control

CC(C)(C)C(=O)CC(=O)C(C)(C)C.CC(C)(C)C(=O)CC(=O)C(C)(C)C.[Cu]
inactive: dose: 4.75 mg/kg/injection, schedule: Q01DX009 (ip), vehicle: saline with Tween-80 104 % of control | dose: 9.5 mg/kg/injection, schedule: Q01DX009 (ip), vehicle: saline with Tween-80 95 % of control | dose: 19.0 mg/kg/injection, schedule: Q01DX009 (ip), vehicle: saline with Tween-80 95 % of control

COc1ccc(/C=N/NC(=O)COCC(=O)N/N=C/c2ccc(OC)cc2)cc1
inactive: [5] 100 % of control | [6] 88 % of control | [7] 91 % of control

Cc1cc(OCCCCOc2ccc(C#N)cc2)ccc1[N+](=O)[O-]
inactive: [8] 96 % of control | [9] 90 % of control | [10] 88 % of control

COc1ccc2[nH]c3c(C)c4ccn5c(=O)c6ccccc6cc5c4c(C)c3c2c1
inactive: dose: 0.1 mg/kg/injection, schedule: Q04DX003 (ip), vehicle: distilled water + Tween-80 87 % of control | dose: 0.2 mg/kg/injection, schedule: Q04DX003 (ip), vehicle: distilled water + Tween-80 100 % of control | dose: 0.4 mg/kg/injection, schedule: Q04DX003 (ip), vehicle: distilled water + Tween-80 91 % of control | dose: 0.78 mg/kg/injection, schedule: Q04DX003 (ip), vehicle: distilled water + Tween-80 87 % of control | dose: 0.8 mg/kg/injection, schedule: Q04DX003 (ip), vehicle: distilled water + Tween-80 92 % of control | [1] 91 % of control

CC(=O)CC(=O)CCC(=O)O
inactive: dose: 25.0 mg/kg/injection, schedule: Q01DX009 (ip), vehicle: saline 100 % of control | [2] 105 % of control | [3] 110 % of control | [4] 117 % of control | dose: 400.0 mg/kg/injection, schedule: Q01DX009 (ip), vehicle: saline 94 % of control

O=c1oc(-c2ccc(Cl)cc2[N+](=O)[O-])nc2ccccc12
inactive: [2] 108 % of control | [3] 104 % of control | [4] 100 % of control

NNC(=O)c1cccc2ccccc12
inactive: dose: 3.12 mg/kg/injection, schedule: Q01DX005 (ip), vehicle: saline 101 % of control | dose: 6.25 mg/kg/injection, schedule: Q01DX005 (ip), vehicle: saline 104 % of control | dose: 12.5 mg/kg/injection, schedule: Q01DX005 (ip), vehicle: saline 98 % of control

NC(=S=O)C(N)=S=O
inactive: [5] 103 % of control and 110 % of control | [6] 112 % of control and 117 % of control

CC(c1ccc(N2Cc3ccccc3C2=O)cc1)C(O)C(N)=O (stereo unspecified)
inactive: [5] 89 % of control | [6] 92 % of control | [7] 89 % of control

CC(C)C1OCC(CO)([N+](=O)[O-])CO1 (stereo unspecified)
inactive: [8] 102 % of control | [9] 100 % of control | [10] 93 % of control

NC1=NS(=O)(=O)N=C(N)C1=NNc1ccc([N+](=O)[O-])cc1
inactive: dose: 100.0 mg/kg/injection, schedule: Q01DX001 (ip), vehicle: saline with Tween-80 108 % of control | dose: 200.0 mg/kg/injection, schedule: Q01DX001 (ip), vehicle: saline with Tween-80 92 % of control | dose: 400.0 mg/kg/injection, schedule: Q01DX001 (ip), vehicle: saline with Tween-80 96 % of control

O=C(O)c1c[nH]c2cc(-n3cccc3)ccc2c1=O
inactive: dose: 15.0 mg/kg/injection, schedule: Q01DX005 (ip), vehicle: saline with Tween-80 102 % of control | dose: 30.0 mg/kg/injection, schedule: Q01DX005 (ip), vehicle: saline with Tween-80 101 % of control | [8] 102 % of control and 88 % of control

CCOC(=O)C1CCC(=O)N1Cc1c[nH]c2ccccc12 (stereo unspecified)
inactive: [8] 92 % of control | [9] 94 % of control | [10] 94 % of control

CC(C)c1cc(=O)c2cc3[nH]c4ccccc4c3cc2[nH]1
inactive: [5] 97 % of control | [6] 87 % of control | [7] 90 % of control
